Key:
Format in all cases: in vivo
barnyardgrass [1] = assay: Test Example 1: herbicidal effects in preemergence treatment under submerged conditions; settings: dose 2.52 g/a
Summary of the method: (§1)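 Alluvial soil flooded to 4 cm depth; barnyardgrass, bulrush and ducksalad sown and 2.5-leaf rice seedlings transplanted. Same day, water-diluted emulsifiable concentrates applied to the water surface at set doses (g/a). Kept at 25–30 °C in greenhouse; effects scored 0–5 by mortality after three weeks.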

bulrush [2] = assay: as above; settings: dose 2.52 g/a
Summary of the method: as §1

ducksalad [3] = assay: as above; settings: dose 2.52 g/a
Summary of the method: as §1

transplanted rice = assay: Test Example 1: preemergence treatment under submerged conditions, effect on crop; settings: dose 2.52 g/a
Summary of the method: as §1

barnyardgrass [4] = assay: Test Example 2: herbicidal effects during the vegetation period under submerged conditions; settings: treatment during the vegetation period under submerged conditions; dose 2.52 g/a
Summary of the method: (§2)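 Barnyardgrass, bulrush and ducksalad were co-sown in alluvial soil flooded to 4 cm and grown in a greenhouse at 25 to 30° C. At the 1- or 2-leaf stage, water-diluted emulsifiable concentrates went onto the water surface at set doses (g/a). Herbicidal effect was scored three weeks later on a graded scale.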

bulrush [5] = assay: as above; settings: treatment during the vegetation period under submerged conditions; dose 2.52 g/a
Summary of the method: as §2

ducksalad [6] = assay: as above; settings: treatment during the vegetation period under submerged conditions; dose 2.52 g/a
Summary of the method: as §2

Italian ryegrass [7] = assay: Test Example 3: herbicidal effects in soil treatment; settings: dose 3.2 g/a
Summary of the method: (§3)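 Seeds were sown in sterilized diluvial soil and covered with about 1.5 cm of soil. Compounds, formulated as emulsifiable concentrates and diluted with water, were sprayed evenly over the soil surface at set doses in g/a. Herbicidal effect was scored on a rating scale three weeks later.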

barnyardgrass [8] = assay: as above; settings: dose 3.2 g/a
Summary of the method: as §3

beadstraw [9] = assay: as above; settings: dose 3.2 g/a
Summary of the method: as §3

common chickweed [10] = assay: as above; settings: dose 3.2 g/a
Summary of the method: as §3

common lambsquater [11] = assay: as above; settings: dose 3.2 g/a
Summary of the method: as §3

common ragweed [12] = assay: as above; settings: dose 3.2 g/a
Summary of the method: as §3

giant foxtail [13] = assay: as above; settings: dose 3.2 g/a
Summary of the method: as §3

large crabgrass [14] = assay: as above; settings: dose 3.2 g/a
Summary of the method: as §3

posumbu knotweed [15] = assay: as above; settings: dose 3.2 g/a
Summary of the method: as §3

redroot pigweed [16] = assay: as above; settings: dose 3.2 g/a
Summary of the method: as §3

velvetleaf [17] = assay: as above; settings: dose 3.2 g/a
Summary of the method: as §3

water foxtail [18] = assay: as above; settings: dose 3.2 g/a
Summary of the method: as §3

wild oat [19] = assay: as above; settings: dose 3.2 g/a
Summary of the method: as §3

Italian ryegrass [20] = assay: Test Example 4: herbicidal effect in foliage treatment; settings: dose 3.2 g/a, three weeks after the application
Summary of the method: (§4)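 14-day greenhouse-grown plants (25–30° C) sprayed on foliage with diluted EC; dose as g/a; effect graded after 3 weeks.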

barnyardgrass [21] = assay: as above; settings: dose 3.2 g/a, three weeks after the application
Summary of the method: as §4

beadstraw [22] = assay: as above; settings: dose 3.2 g/a, three weeks after the application
Summary of the method: as §4

common chickweed [23] = assay: as above; settings: dose 3.2 g/a, three weeks after the application
Summary of the method: as §4

common lambsquater [24] = assay: as above; settings: dose 3.2 g/a, three weeks after the application
Summary of the method: as §4

common ragweed [25] = assay: as above; settings: dose 3.2 g/a, three weeks after the application
Summary of the method: as §4

giant foxtail [26] = assay: as above; settings: dose 3.2 g/a, three weeks after the application
Summary of the method: as §4

large crabgrass [27] = assay: as above; settings: dose 3.2 g/a, three weeks after the application
Summary of the method: as §4

posumbu knotweed [28] = assay: as above; settings: dose 3.2 g/a, three weeks after the application
Summary of the method: as §4

redroot pigweed [29] = assay: as above; settings: dose 3.2 g/a, three weeks after the application
Summary of the method: as §4

velvetleaf [30] = assay: as above; settings: dose 3.2 g/a, three weeks after the application
Summary of the method: as §4

water foxtail [31] = assay: as above; settings: dose 3.2 g/a, three weeks after the application
Summary of the method: as §4

wild oat [32] = assay: as above; settings: dose 3.2 g/a, three weeks after the application
Summary of the method: as §4

| SMILES | A: barnyardgrass, herbicidal effect (evaluation scale 0-5) (barnyardgrass [1]) | B: bulrush, herbicidal effect (evaluation scale 0-5) (bulrush [2]) | C: ducksalad, herbicidal effect (evaluation scale 0-5) (ducksalad [3]) | a: transplanted rice, effect on crop (evaluation scale 0-5) (transplanted rice) | A: barnyardgrass, herbicidal effect (evaluation scale 0-5) (barnyardgrass [4]) | B: bulrush, herbicidal effect (evaluation scale 0-5) (bulrush [5]) | C: ducksalad, herbicidal effect (evaluation scale 0-5) (ducksalad [6]) | herbicidal effect, H: Italian ryegrass (Italian ryegrass [7]) | herbicidal effect, A: barnyardgrass (barnyardgrass [8]) | herbicidal effect, O: beadstraw (beadstraw [9]) | herbicidal effect, N: common chickweed (common chickweed [10]) | herbicidal effect, L: common lambsquater (common lambsquater [11]) | herbicidal effect, J: common ragweed (common ragweed [12]) | herbicidal effect, E: giant foxtail (giant foxtail [13]) | herbicidal effect, D: large crabgrass (large crabgrass [14]) | herbicidal effect, M: posumbu knotweed (posumbu knotweed [15]) | herbicidal effect, K: redroot pigweed (redroot pigweed [16]) | herbicidal effect, I: velvetleaf (velvetleaf [17]) | herbicidal effect, G: water foxtail (water foxtail [18]) | herbicidal effect, F: wild oat (wild oat [19]) | other results |
| --- | --- | --- | --- | --- | --- | --- | --- | --- | --- | --- | --- | --- | --- | --- | --- | --- | --- | --- | --- | --- | --- |
| CC(C)COC(=O)N(c1ccccc1CN1COCN(C)C1=O)S(=O)(=O)C(F)(F)F [IV-4] | 5 (mortality of 90% or above (nearly complete death)) | 5 (mortality of 90% or above (nearly complete death)) | 4 (mortality of at least 70% and less than 90%) | 0 (mortality of less than 5% (almost ineffective)) | 5 (mortality of 90% or above (nearly complete death)) | 5 (mortality of 90% or above (nearly complete death)) | 5 (mortality of 90% or above (nearly complete death)) | 0 (mortality of less than 5% (almost ineffective)) | 4 (mortality of at least 70% and less than 90%) | 0 (mortality of less than 5% (almost ineffective)) | 0 (mortality of less than 5% (almost ineffective)) | 0 (mortality of less than 5% (almost ineffective)) | 0 (mortality of less than 5% (almost ineffective)) | 3 (mortality of at least 40% and less than 70%) | 4 (mortality of at least 70% and less than 90%) | 0 (mortality of less than 5% (almost ineffective)) | 0 (mortality of less than 5% (almost ineffective)) | 0 (mortality of less than 5% (almost ineffective)) | 4 (mortality of at least 70% and less than 90%) | 0 (mortality of less than 5% (almost ineffective)) | H: Italian ryegrass, herbicidal effect (Italian ryegrass [20]): 1 (mortality of at least 5% and less than 20%); A: barnyardgrass, herbicidal effect (barnyardgrass [21]): 4 (mortality of at least 70% and less than 90%); O: beadstraw, herbicidal effect (beadstraw [22]): 0 (mortality of less than 5% (almost ineffective)); N: common chickweed, herbicidal effect (common chickweed [23]): 3 (mortality of at least 40% and less than 70%); L: common lambsquater, herbicidal effect (common lambsquater [24]): 0 (mortality of less than 5% (almost ineffective)); J: common ragweed, herbicidal effect (common ragweed [25]): 0 (mortality of less than 5% (almost ineffective)); E: giant foxtail, herbicidal effect (giant foxtail [26]): 3 (mortality of at least 40% and less than 70%); D: large crabgrass, herbicidal effect (large crabgrass [27]): 3 (mortality of at least 40% and less than 70%); M: posumbu knotweed, herbicidal effect (posumbu knotweed [28]): 0 (mortality of less than 5% (almost ineffective)); K: redroot pigweed, herbicidal effect (redroot pigweed [29]): 0 (mortality of less than 5% (almost ineffective)); I: velvetleaf, herbicidal effect (velvetleaf [30]): 3 (mortality of at least 40% and less than 70%); G: water foxtail, herbicidal effect (water foxtail [31]): 4 (mortality of at least 70% and less than 90%); F: wild oat, herbicidal effect (wild oat [32]): 0 (mortality of less than 5% (almost ineffective)) |
| CC(C)COC(=O)N(c1ccccc1CN1OCCCC1=O)S(=O)(=O)C(F)(F)F [III-15] | 5 (mortality of 90% or above (nearly complete death)) | 5 (mortality of 90% or above (nearly complete death)) | 5 (mortality of 90% or above (nearly complete death)) | 2 (mortality of at least 20% and less than 40%) | 5 (mortality of 90% or above (nearly complete death)) | 5 (mortality of 90% or above (nearly complete death)) | 5 (mortality of 90% or above (nearly complete death)) | 3 (mortality of at least 40% and less than 70%) | 5 (mortality of 90% or above (nearly complete death)) | 0 (mortality of less than 5% (almost ineffective)) | 4 (mortality of at least 70% and less than 90%) | 0 (mortality of less than 5% (almost ineffective)) | 3 (mortality of at least 40% and less than 70%) | 5 (mortality of 90% or above (nearly complete death)) | 5 (mortality of 90% or above (nearly complete death)) | 0 (mortality of less than 5% (almost ineffective)) | 2 (mortality of at least 20% and less than 40%) | 4 (mortality of at least 70% and less than 90%) | 5 (mortality of 90% or above (nearly complete death)) | 0 (mortality of less than 5% (almost ineffective)) | H: Italian ryegrass, herbicidal effect (Italian ryegrass [20]): 3 (mortality of at least 40% and less than 70%); A: barnyardgrass, herbicidal effect (barnyardgrass [21]): 5 (mortality of 90% or above (nearly complete death)); O: beadstraw, herbicidal effect (beadstraw [22]): 3 (mortality of at least 40% and less than 70%); N: common chickweed, herbicidal effect (common chickweed [23]): 3 (mortality of at least 40% and less than 70%); L: common lambsquater, herbicidal effect (common lambsquater [24]): 0 (mortality of less than 5% (almost ineffective)); J: common ragweed, herbicidal effect (common ragweed [25]): 4 (mortality of at least 70% and less than 90%); E: giant foxtail, herbicidal effect (giant foxtail [26]): 4 (mortality of at least 70% and less than 90%); D: large crabgrass, herbicidal effect (large crabgrass [27]): 5 (mortality of 90% or above (nearly complete death)); M: posumbu knotweed, herbicidal effect (posumbu knotweed [28]): 0 (mortality of less than 5% (almost ineffective)); K: redroot pigweed, herbicidal effect (redroot pigweed [29]): 2 (mortality of at least 20% and less than 40%); I: velvetleaf, herbicidal effect (velvetleaf [30]): 4 (mortality of at least 70% and less than 90%); G: water foxtail, herbicidal effect (water foxtail [31]): 5 (mortality of 90% or above (nearly complete death)); F: wild oat, herbicidal effect (wild oat [32]): 0 (mortality of less than 5% (almost ineffective)) |
